In patent US20240076347A1, “METHODS FOR PREVENTING FUNGAL INFECTIONS” (Cidara Therapeutics, Inc., priority 2016, published 2024):
Several values for one entry are separate records, joined by “and”; a condition that tells them apart may be missing. Equal entries are not always repeated. Where two headings read alike, the source gives them in different places. Numbered stars: 1 amine (or outer) side, 2 acyl side, 3 side chain; on linkers, the order of the positions; unused ones are H or OH. Bridge positions count the residues as written; N and C are the ends. Square brackets hold non-standard residues; d marks the D form. Peptide text beside a SMILES is read from it. * marks the point of attachment. ξ: configuration not given here. Orn(4R-OH,5R-OCH2CH2NMe3+) = C[N+](C)(C)CCO[C@@H](N[*:3])[C@H](O)C[C@H](N[*:1])C(=O)[*:2]; pTerphenylCO(4''-OnC5H11) = CCCCCOc1ccc(-c2ccc(-c3ccc(C(=O)*)cc3)cc2)cc1; hTyr(3S-OH,4S-OH) = N[C@H](C(=O)O)[C@H](O)[C@@H](O)c1ccc(O)cc1; X1 = C[C@H]1CN([*:1])C(C(=O)[*:2])C1O; Hyp = O=C(O)[C@@H]1C[C@@H](O)CN1; ξT = CC(O)C(N)C(=O)O

What was measured:
[1] = Monkey SC tolerability study; format: in vivo, cynomolgus monkeys
Protocol: Therefore, only local tolerability (and PK) of CD101 by SC administration required evaluation. […] Plasma concentrations were then quantified by liquid chromatography with tandem mass spectrometric detection (LC-MS/MS). Bioavailability from SC dosing was calculated by comparing the calculated area under the concentration-time profile (AUC) from SC against the AUC from IV administration of the same dose.
Therefore, a separate study was designed to evaluate the tolerability of a SC dose of CD101 as a highly concentrated solution (100 mg/mL; 30 mg/kg) in two cynomolgus monkeys. […] The drug reaches a maximum concentration within a few hours then remains nearly constant over the course of 10 days.

C. parapsilosis = assay: In vitro susceptibility testing (CLSI M27-A3); format: cell-based, Candida parapsilosis; settings: Lodderomyces parapsilosis, 24 h
Protocol: (§1) Strains. Ten clinical Candida strains were used for the in vivo treatment studies, including four C. albicans, three C. glabrata, and three C. parapsilosis strains (Table 18). This group was selected to encompass phenotypic variability in susceptibility to triazoles and echinocandins and based on similar fitness in the animal model as defined by the amount of growth in control animals over 24 h. The organisms were maintained, grown, and quantified on Sabouraud's dextrose agar (SDA) plates.
(§2) In vitro susceptibility testing. All isolates were tested in accordance with the standards in CLSI document M27-A3. The MICs were determined visually after 24 h of incubation as the lowest concentration of drug that causes a significant diminution (≥50%) of growth compared to controls. MICs were determined on three separate occasions in duplicate.

[2] = system: Candida albicans ATCC SC5314; assay: Prophylaxis, neutropenic ICR mouse candidiasis model, kidney CFU; format: in vivo
Protocol: Candidiasis model: ICR mice (5/group) were rendered neutropenic by cyclophosphamide on Day −4 (150 mg/kg) and Day −1 (100 mg/kg), then challenged (Day 0) with Candida albicans ATCC SC5314 via IV (100 μL, […] CFU/mouse). Prior to challenge, mice were given one SC dose (5, 10, or 20 mg/kg) of CD101 on Day −5, Day −3, or Day −1. At 24 hours post-challenge, kidneys were removed for CFU enumeration.

[3] = Plasma and lung epithelial lining fluid (ELF) pharmacokinetics in ICR mice; format: in vivo; settings: 20 mg/kg IP; for Kp: ip, 20 mg/kg
Protocol: At pre-dose, 1, 3, 6, 12, 24, 48, and 72 hours post-dose, 3 mice/timepoint were anesthetized/euthanized for blood collection (plasma) and bronchoalveolar lavage fluid (BALF) collection with 2×0.5 mL flushes of saline. Urea levels for plasma/BALF normalization for the volume of lung epithelial lining fluid (ELF) calculation were quantified using a commercially-available spectrophotometry-based assay. CD101 concentrations in plasma/BALF samples were measured by LC with electrospray ionization tandem mass spectrometric (LC-MS/MS) detection.
Urea for plasma/BALF normalization for ELF volume were quantified using spectrophotometry. CD101 concentrations in plasma/BALF samples were measured by LC-MS/MS. Total plasma concentrations were corrected for protein binding (99.2%).

[4] = Single-dose plasma pharmacokinetics in mice, IP; format: in vivo; settings: IP doses of 1, 4, 16 and 64 mg/kg; for half-life: read-out: elimination half-life, range
Protocol: Pharmacokinetics. […] Plasma from groups of three mice per time point (1, 3, 6, 12, 24, 48, and 72-h) was collected. The plasma drug concentrations were determined by liquid chromatography-tandem mass spectrometry. A noncompartmental model was used in the pharmacokinetic analysis. Elimination half-life was calculated by nonlinear least-squares technique. The area under the concentration-time curve (AUC) was calculated by the trapezoidal rule. Pharmacokinetic exposures for doses not directly measured in the PK study were estimated by linear extrapolation for higher and lower dose levels and by interpolation for dose levels within the dose range studied given the linear PK results. Protein binding was 99.2%.

C. glabrata = assay: In vitro susceptibility testing (CLSI M27-A3); format: cell-based, Candida glabrata; settings: Nakaseomyces glabratus, 24 h
Protocol: as §1, §2

human plasma proteins = assay: Plasma protein binding by ultracentrifugation; format: in vitro ADME
Protocol: (§3) Concentrations in plasma ranging from 7 to 60 μg/mL were tested and resulting samples were analyzed by LC-MS/MS.

[5] = Plasma protein binding by ultracentrifugation; format: in vitro ADME; settings: mouse plasma; read-out: percent of bound CD101, mean (protein binding) (converted)
Protocol: as §3

In the case of CCCCCOc1ccc(-c2ccc(-c3ccc(C(=O)N[C@H]4C[C@@H](O)[C@@H](OCC[N+](C)(C)C)NC(=O)C5C(O)[C@@H](C)CN5C(=O)[C@H]([C@@H](C)O)NC(=O)[C@H]([C@H](O)[C@@H](O)c5ccc(O)cc5)NC(=O)[C@@H]5C[C@@H](O)CN5C(=O)C(C(C)O)NC4=O)cc3)cc2)cc1 (stereo partly drawn) [CD101] ({pTerphenylCO(4''-OnC5H11)}-[Orn(4R-OH,5R-OCH2CH2NMe3+)][ξT][Hyp][hTyr(3S-OH,4S-OH)]T[X1]; lactam 1-C), the “local (injection site) tolerability” value ([1]; single 30 mg/kg SC (100 mg/mL)) is reported as “no sign of irritation or local (injection site) adverse toxicity”, the “bodyweight and food consumption” value ([1]; single 30 mg/kg SC, 10 days follow-up) is reported as “no effect on bodyweight or food consumption” and the MIC (C. parapsilosis; strain 20423.072) is reported as 0.5 µg/mL. For the same molecule, the MIC (C. parapsilosis; strain 20477.048) was 1 µg/mL, the MIC (C. parapsilosis; strain 20519.069) was 1 µg/mL and the “kidney CFU” value ([2]; 10 mg/kg SC single dose at Day −3 and Day −1, 24 h post-challenge, all animals) was “Complete clearance”. For the same molecule, the “kidney CFU” value ([2]; 20 mg/kg SC on Day −3, all but one animal) was “Complete clearance”, the “kidney CFU” value ([2]; 20 mg/kg SC on Day −5, −3 or −1) was “reduced CFU burden regardless of prophylactic treatment day” and the “kidney CFU” value ([2]; 5 or 10 mg/kg SC at Day −3 and Day −1) was “significant decrease in CFU”. The “mean maximum ELF concentration” value [3] was 15.1 µg/mL, the “mean maximum plasma concentration” value [3] was 30.1 µg/mL and the “time of maximum ELF concentration” value [3] was 6 h and 4 h. For the same molecule, the “time of maximum plasma concentration” value ([3]; first collection timepoint) was 1 h, the concentration at 72 h ([3]; ICR, mouse, lung epithelial lining fluid (ELF), intraperitoneal, at 72 h) was 4000 ng/mL and the Kp ([3]; ICR, mouse, lung epithelial lining fluid (ELF), free-drug (protein binding 99.2%), read-out: ELF/Plasma AUC ratio) was 100. For the same molecule, the Kp ([3]; ICR, mouse, lung epithelial lining fluid (ELF), read-out: AUC exposure ratios of ELF/plasma) was 0.8 to 0.95, the Kp ([3]; ICR, mouse, lung epithelial lining fluid (ELF), total-drug, read-out: ELF/Plasma AUC ratio) was 0.8 and the half-life ([3]; ICR, mouse, lung epithelial lining fluid (ELF), read-out: ELF half-life (converted)) was 31.9 h. The AUC(0-t) ([3]; ICR, mouse, lung epithelial lining fluid (ELF), read-out: mean ELF AUC0-72) was 606 µg·h/mL, the AUC(0-inf) ([3]; ICR, mouse, lung epithelial lining fluid (ELF), read-out: mean ELF AUCinf) was 802 µg·h/mL and the AUC(0-t) ([3]; ICR, mouse, plasma, read-out: mean plasma AUC0-72) was 762 µg·h/mL. For the same molecule, the AUC(0-inf) ([3]; ICR, mouse, plasma, read-out: mean plasma AUCinf) was 848 µg·h/mL, the half-life ([3]; ICR, mouse, plasma, read-out: plasma half-life (converted)) was 21.1 h and the AUC ([4]; ICR Swiss/CD1, mouse, read-out: AUC0-, range) was 93.2 to 40500 µg·h/mL. For the same molecule, the Cmax ([4]; ICR Swiss/CD1, mouse, read-out: Peak (Cmax) levels, range) was 2600 to 76700 ng/mL, the half-life ([4]; ICR Swiss/CD1, mouse) was 28 to 41 h and the half-life ([4]; mouse) was 29 to 41 h. For the same molecule, the MIC (C. glabrata; strain 5592) was 0.125 µg/mL, the MIC (C. glabrata; strain 10956 (FKS2_HS1_F659V)) was 1 µg/mL and the MIC (C. glabrata; strain 35315) was 0.5 µg/mL. The “percent of bound CD101, mean” value (human plasma proteins; human plasma, 7 to 60 μg/mL) was 97.4%, the “higher free fraction in human vs mouse plasma” value (human plasma proteins; human vs mouse plasma) was about 3 × and the fraction unbound at 2.5 hr [5] was 0.008.
